Source: patent US20110184029A1, “PYRIDONE DERIVATIVES AS NON-NUCLEOSIDE REVERSE TRANSCRIPTASE INHIBITORS” (KOREA RESEARCH INSTITUTE OF CHEMICAL TECHNOLOGY, priority 2008, published 2011)

How the values were obtained:
HIV-IIIb = assay: Antiviral assay in MT-2 / MT-4 cells infected with HIV-IIIb (CellTiter-Glo readout); format: cell-based; settings: MT4, 120 h, 5 days, MT-2 or MT-4 cells not given
Protocol: For the antiviral assay utilizing MT-2 cells, 50 μl of 2× test concentration of 5-fold serially diluted compound in culture medium with 10% FBS was added to each well of a 96-well plate (9 concentrations) in triplicate. MT-2 cells were infected with HIV-IIIb at a multiplicity of infection (m.o.i) of 0.01 for 3 hours. Fifty microliters of infected cell suspension in culture medium with 10% FBS (˜1.5×10^4 cells) was then added to each well containing 50 μl of diluted compound. The plates were then incubated at 37° C. for 5 days. For the antiviral assay utilizing MT-4 cells, 20 μl of 2× test concentration of 5-fold serially diluted compound in culture medium with 10% FBS was added to each well of a 384-well plate (7 concentrations) in triplicate. MT-4 cells were next mixed with HIV-IIIb at an m.o.i. of 0.1 and 20 μl of virus/cell mixture (˜2000 cells) was immediately added to each well containing 20 μl of diluted compound. The plates were then incubated at 37° C. for 5 days. After 5 days of incubation, 100 μl of CellTiter-Glo™ Reagent (catalog #G7571, Promega Biosciences, Inc., Madison, Wis.) was added to each well containing MT-2 cells and 40 μl to each well containing MT-4 cells. Cell lysis was carried out by incubation at room temperature for 10 min and chemiluminescence was read.

[1] = Cytotoxicity assessment in uninfected MT-2 / MT-4 cells; format: cell-based; settings: human, MT-2 or MT-4 cells not given
Protocol: For compound cytotoxicity assessment in MT-2 cells, the protocol was identical to that of the antiviral assay in MT-2 cells, except that uninfected cells and a 3-fold serial dilution of compounds were used. For cytotoxicity assessment in MT-4 cells, the protocol is identical to that of the antiviral assay in MT-4 cells, except that no virus was added. Cytotoxicity is expressed as CC50.

## Cc1cc(C#N)cc(C(=O)c2c(CC3CC3)c(C)[nH]c(=O)c2C(C)C)c1 [Example 1, 3-(5-Cyclopropylmethyl-3-isopropyl-6-methyl-2-oxo-1,2-dihydro-pyridine-4-carbonyl)-5-methyl-benzonitrile]
HIV-IIIb
  EC50: < 100 nM
other
  melting point: 222 to 224 °C

## Cc1[nH]c(=O)c(C(C)C)c(C(=O)c2cc(C#N)cc(C#N)c2)c1CC1CC1 [Example 2, 5-(5-Cyclopropylmethyl-3-isopropyl-6-methyl-2-oxo-1,2-dihydro-pyridine-4-carbonyl)-isophthalonitrile]
HIV-IIIb
  EC50: < 100 nM
other
  melting point: 266 to 267 °C

## Cc1[nH]c(=O)c(C(C)C)c(C(=O)c2cc(Cl)cc(C#N)c2)c1CC1CC1 [Example 3, 3-Chloro-5-(5-cyclopropylmethyl-3-isopropyl-6-methyl-2-oxo-1,2-dihydro-pyridine-4-carbonyl)-benzonitrile]
HIV-IIIb
  EC50: < 100 nM
other
  melting point: 237 to 238 °C

## Cc1cc(C#N)cc(C(=O)c2c(CC3(CO)CC3)c(C)[nH]c(=O)c2C(C)C)c1 [Example 5, 3-[5-(1-Hydroxymethyl-cyclopropylmethyl)-3-isopropyl-6-methyl-2-oxo-1,2-dihydro-pyridine-4-carbonyl]-5-methyl-benzonitrile]
HIV-IIIb
  EC50: < 100 nM

## Cc1[nH]c(=O)c(C(C)C)c([S+]([O-])c2cc(C#N)cc(C#N)c2)c1CC1CC1 (stereo not shown) [Example 6, 5-(5-Cyclopropylmethyl-3-isopropyl-6-methyl-2-oxo-1,2-dihydro-pyridin-4-sulfinyl)-isophthalonitrile]
HIV-IIIb
  EC50: < 100 nM
[1]
  CC50 at 5 days: > 100000 nM

## Cc1cc(C#N)cc(Sc2c(CC3CC3)c(C)[nH]c(=O)c2C(C)C)c1 [Example 7, 3-(5-(cyclopropylmethyl)-3-isopropyl-6-methyl-2-oxo-1,2-dihydropyridin-4-ylthio)-5-methylbenzonitrile]
HIV-IIIb
  EC50: < 100 nM

## Cc1cc(C#N)cc([S+]([O-])c2c(CC3CC3)c(C)[nH]c(=O)c2C(C)C)c1 (stereo not shown) [Example 8, 3-(5-(cyclopropylmethyl)-3-isopropyl-6-methyl-2-oxo-1,2-dihydropyridin-4-ylsulfinyl)-5-methylbenzonitrile]
HIV-IIIb
  EC50: < 100 nM

## Cc1cc(C#N)cc(S(=O)(=O)c2c(CC3CC3)c(C)[nH]c(=O)c2C(C)C)c1 [Example 9, 3-(5-Cyclopropylmethyl-3-isopropyl-6-methyl-2-oxo-1,2-dihydro-pyridine-4-sulfonyl)-5-methyl-benzonitrile]
HIV-IIIb
  EC50: < 100 nM
[1]
  CC50 at 5 days: > 69000 nM

## Cc1[nH]c(=O)c(C(C)C)c(C(=O)c2cc(C#N)cc(C(N)=O)c2)c1CC1CC1 [Example 10, 3-Cyano-5-(5-cyclopropylmethyl-3-isopropyl-6-methyl-2-oxo-1,2-dihydro-pyridine-4-carbonyl)-benzamide]
HIV-IIIb
  EC50: < 100 nM

## Cc1cc(C#CCO)cc(C(=O)c2c(CC3CC3)c(C)[nH]c(=O)c2C(C)C)c1 [Example 11, 5-(cyclopropylmethyl)-4-(3-(3-hydroxyprop-1-ynyl)-5-methylbenzoyl)-3-isopropyl-6-methylpyridin-2 (1H)-one]
HIV-IIIb
  EC50: < 100 nM

## Cc1[nH]c(=O)c(C(C)C)c(C(=O)c2cc(C#N)cc(C#CCO)c2)c1CC1CC1 [Example 12, 3-(5-Cyclopropylmethyl-3-isopropyl-6-methyl-2-oxo-1,2-dihydro-pyridine-4-carbonyl)-5-(3-hydroxy-prop-1-ynyl)-benzonitrile]
HIV-IIIb
  EC50: < 100 nM

## Cc1cc(C#N)cc(C(=O)c2c(CC3CC3)c(CO)[nH]c(=O)c2C(C)C)c1 [Example 13, 3-(5-Cyclopropylmethyl-6-hydroxymethyl-3-isopropyl-2-oxo-1,2-dihydro-pyridine-4-carbonyl)-5-methyl-benzonitrile]
HIV-IIIb
  EC50: < 100 nM

## CC(C)c1c(C(=O)c2cc(C#N)cc(C#N)c2)c(CC2CC2)c(CO)[nH]c1=O [Example 14, 5-(5-Cyclopropylmethyl-6-hydroxymethyl-3-isopropyl-2-oxo-1,2-dihydro-pyridine-4-carbonyl)-isophthalonitrile]
HIV-IIIb
  EC50: < 100 nM

## Cc1cc(C#N)cc(C(=O)c2c(CC3CC3)c(CC#N)[nH]c(=O)c2C(C)C)c1 [Example 15, 3-(6-Cyanomethyl-5-cyclopropylmethyl-3-isopropyl-2-oxo-1,2-dihydro-pyridine-4-carbonyl)-5-methyl-benzonitrile]
HIV-IIIb
  EC50: < 100 nM
